# From the OPERA property sets (Mansouri et al. 2018)
# Conditions: for log10 biotransformation half-life (days) / log10 BCF: fish
smiles,measurement,value
CC(C)OC(=O)CCCCC(=O)OC(C)C,melting point,-1.1 °C
CC(F)(F)F,boiling point,-47.5 °C
same,log10 vapour pressure (mmHg),3.98
same,melting point,-111 °C
CC(=O)[O-].[K+],melting point,292 °C
CCOC(=O)CCC(=O)O,melting point,8 °C
Nc1ccc2c(c1)Cc1ccccc1-2,melting point,129 °C
O=C(O)Cc1cccc(Cl)c1,melting point,78.8 °C
CC(C(N)=O)n1nc2ccccc2n1 (stereo unspecified),melting point,170 °C
C=CCOC=O,boiling point,83.6 °C
COc1cccc2c1C(=O)c1c(O)c3c(c(O)c1C2=O)C[C@@](O)(C(=O)CO)C[C@@H]3O[C@H]1C[C@H](N)[C@H](O)[C@H](C)O1,melting point,230 °C
Cc1ccc(O)cc1O,boiling point,268 °C
same,melting point,106 °C
CCCCC(CC)COC(=O)COc1cc(Cl)c(Cl)cc1Cl (stereo unspecified),log10 vapour pressure (mmHg),-5.92
Clc1ccc(-c2ccccc2)cc1Cl,log10 Henry constant (atm·m³/mol),-3.85
CC(C=CC=CC(C)=CC=CC(C)=CC=C1C(C)=CC(=O)CC1(C)C)=CC=CC(C)=CC=C1C(C)=CC(=O)CC1(C)C,melting point,219 °C
O=[N+]([O-])c1cc(C2CCCCC2)c(O)c([N+](=O)[O-])c1,melting point,107 °C
c1ccc2c(Oc3cccc4ccccc34)cccc2c1,melting point,110 °C
Cc1cc(Br)ccc1N,boiling point,240 °C
same,melting point,59.5 °C
CCc1cccc(Cl)c1,boiling point,184 °C
same,melting point,-55 °C
"CC(C)(C)[C@@H](O)[C@@H](Cc1ccc(Cl)cc1)n1cncn1 (single isomer, unassigned)",log10 Koc (L/kg),2.7
same,log10 vapour pressure (mmHg),-8.12
same,melting point,166 °C
c1cc2cccc3c4cccc5cccc(c(c1)c23)c54,log10 biodegradation half-life (days),2.95
same,log10 vapour pressure (mmHg),-8.28
same,melting point,274 °C
same,ready biodegradability,not readily biodegradable
same,log10 biotransformation half-life (days),-0.06
O=C(Nc1cc(Cl)cc(Cl)c1O)c1c(O)c(Cl)cc(Cl)c1Cl,melting point,210 °C
CCOC(=O)CS,boiling point,157 °C
Cc1cccc(Br)c1,boiling point,184 °C
same,log10 vapour pressure (mmHg),0.185
same,melting point,-39.8 °C
CCCCCCCCCC=O,boiling point,208 °C
same,log10 Henry constant (atm·m³/mol),-2.74
same,log10 vapour pressure (mmHg),-0.987
same,melting point,-5 °C
same,ready biodegradability,readily biodegradable
C1N2CN3CN1CN(C2)C3,log10 vapour pressure (mmHg),-2.4
same,ready biodegradability,readily biodegradable
Cc1cccc(N(C)C(=S)Oc2ccc3ccccc3c2)c1,melting point,111 °C
c1cc2c3c(c1)CCC3CCC2 (stereo unspecified),boiling point,249 °C
same,melting point,12.8 °C
O[C@H](CCl)[C@H](O)CCl,melting point,126 °C
CC1(C)[C@H]2CC=C(CO)[C@@H]1C2,boiling point,222 °C
Cc1ccc(O)cc1[N+](=O)[O-],ready biodegradability,not readily biodegradable
same,log10 BCF,1
same,log10 biotransformation half-life (days),-0.8
OCCSSCCO,melting point,26 °C
CCCCNCC,boiling point,108 °C
same,melting point,-78 °C
same,ready biodegradability,readily biodegradable
CC1(O)CCCCCC1,boiling point,184 °C
CC1(C)[C@@H]2CC[C@@](C)(C2)[C@@H]1O,melting point,45.8 °C
CCCOCC(C)C,boiling point,107 °C
Cc1cc(C(C)(C)C)cc(C)c1O,boiling point,248 °C
same,melting point,82.4 °C
NC(=S)C(N)=S,log10 vapour pressure (mmHg),-5.78
CCN(CC)CCOC(=O)C(O)(c1ccccc1)c1ccccc1.Cl,melting point,178 °C
CNC(=O)CSP(=S)(OC)OC,log10 Koc (L/kg),1.2
same,log10 vapour pressure (mmHg),-4.73
same,melting point,52 °C
same,ready biodegradability,not readily biodegradable
same,log10 BCF,0.2
same,log10 biotransformation half-life (days),-1.01
O=C(c1ccc(Cl)cc1)c1ccc(Cl)cc1,boiling point,353 °C
same,melting point,148 °C
O=C(O)c1ccccc1[N+](=O)[O-],melting point,148 °C
same,ready biodegradability,readily biodegradable
O=S(c1ccccc1)c1ccccc1,melting point,71.2 °C
Oc1c(C2CCCCC2)cccc1C1CCCCC1,ready biodegradability,not readily biodegradable
same,log10 BCF,3.02
same,log10 biotransformation half-life (days),0.2
CCCCCCCCCCCCCCCC(=O)OC(C)C,log10 vapour pressure (mmHg),-4.25
same,melting point,13.5 °C
C=CC1CC2C=CC1C2 (stereo unspecified),boiling point,140 °C
same,log10 vapour pressure (mmHg),0.992
same,melting point,-80 °C
CCCCOC=O,boiling point,106 °C
same,log10 vapour pressure (mmHg),1.46
same,melting point,-91.5 °C
CCCCNC(=O)c1ccc(Cl)cc1O,melting point,91.5 °C
COC(=O)c1ccc(OC)cc1,boiling point,256 °C
same,melting point,49 °C
Cc1cc(CC(C)CC(C)(C)C)n(O)c(=O)c1 (stereo unspecified),melting point,108 °C
Cl[SiH2]c1ccccc1,boiling point,162 °C
O=C1OC(=O)C2CCCCC12 (stereo unspecified),ready biodegradability,not readily biodegradable
COc1cc(O)cc(OC)c1,melting point,37 °C
CC1=C(c2ccccc2)C(=O)N(C(C)(C)c2cc(Cl)cc(Cl)c2)CO1,melting point,150 °C
C#CCCCC#C,boiling point,112 °C
same,melting point,-85 °C
CCCCCCCCCCCCCCCCCC(=O)OC(C)C,log10 vapour pressure (mmHg),-4.4
same,melting point,28 °C
C#CC(C)(C)NC(=O)c1cc(Cl)cc(Cl)c1,log10 Koc (L/kg),2.31
same,log10 vapour pressure (mmHg),-6.36
same,melting point,155 °C
CCCCCCCCCCCl,boiling point,223 °C
same,log10 vapour pressure (mmHg),-2.01
same,melting point,-31.3 °C
CCOCOCOCC,boiling point,141 °C
CC(=O)OCCC(C)C,boiling point,142 °C
same,log10 Henry constant (atm·m³/mol),-3.23
same,log10 Koa,3.94
same,log10 vapour pressure (mmHg),0.748
same,melting point,-78.5 °C
CCCCCCCCCCCCSP(SCCCCCCCCCCCC)SCCCCCCCCCCCC,ready biodegradability,not readily biodegradable
CCCCC(=O)Cl,boiling point,109 °C
same,melting point,-110 °C
CC(C)C(C)O (stereo unspecified),boiling point,112 °C
same,log10 vapour pressure (mmHg),0.961
CC(C)S(=O)(=O)n1c(N)nc2ccc(/C(=N/O)c3ccccc3)cc21,melting point,198 °C
Cc1ccccc1CN,boiling point,206 °C
same,melting point,-30 °C
same,log10 BCF,0.66
Cc1cccc(Br)c1C,boiling point,214 °C
FC(F)(F)C(F)(F)C(F)(F)C(F)(F)C(F)(F)C(F)(F)OC(F)(F)C(F)(F)C(F)(F)C(F)(F)C(F)(F)C(F)(F)F,boiling point,181 °C
same,melting point,-90 °C
O=C1C(CCS(=O)c2ccccc2)C(=O)N(c2ccccc2)N1c1ccccc1 (stereo unspecified),melting point,136 °C
c1ccc(Cc2ccc(-c3ccccc3)cc2)cc1,melting point,85 °C
CC1(C)COC(C)(C)C1,boiling point,121 °C
O=C(O)[C@@]1(O)CC(O)[C@H](O)[C@H](O)C1 (stereo partly specified),melting point,162 °C
Fc1cc(F)cc(F)c1,boiling point,75.5 °C
same,log10 vapour pressure (mmHg),2.02
same,melting point,-5.5 °C
CCc1cc(C)c(C)cc1C,boiling point,213 °C
same,melting point,-13.5 °C
Fc1ccccc1-c1ccccc1,boiling point,248 °C
same,melting point,73.5 °C
CCCCOC(=O)CCC(C)=O,boiling point,238 °C
CC[N+](CC)(CC)CCC(O)(c1ccccc1)C1CCCCC1.[I-] (stereo unspecified),melting point,182 °C
CCC(C)I (stereo unspecified),boiling point,120 °C
same,log10 vapour pressure (mmHg),1.23
same,melting point,-104 °C
COc1cc(Cc2cnc(N)nc2N)cc(OC)c1Br,melting point,226 °C
CCn1cccc1,boiling point,130 °C
OC1CCCCCCC1,melting point,25.1 °C
CSC(=O)c1cccc2nnsc12,boiling point,267 °C
same,log10 vapour pressure (mmHg),-5.48
same,melting point,133 °C
O=c1c(O)c(O)c(=O)c1=O,melting point,150 °C
CC(C)(C)C#N,boiling point,106 °C
same,log10 vapour pressure (mmHg),1.54
same,melting point,15 °C
Cc1ccc([N+](=O)[O-])c(O)c1,log10 Henry constant (atm·m³/mol),-4.89
same,log10 vapour pressure (mmHg),-1.7
same,melting point,53 °C
same,ready biodegradability,not readily biodegradable
O=CC1CC=CCC1 (stereo unspecified),boiling point,105 °C
same,melting point,2 °C
C#CC(=C)C,boiling point,32 °C
same,melting point,-113 °C
CC(=O)Br,boiling point,76 °C
same,log10 vapour pressure (mmHg),2.08
same,melting point,-96 °C
Brc1cc(Br)c(Br)c(Oc2ccc(Br)c(Br)c2Br)c1,ready biodegradability,not readily biodegradable
C[Si](C)(Cl)CCl,boiling point,116 °C
CC1=CC(=O)CC(C)(C)[C@@]1(O)/C=C/C(C)=C\C(=O)O,melting point,160 °C
ClCCCCCCCCCl,boiling point,241 °C
same,ready biodegradability,not readily biodegradable
CCC(CC)[N+](=O)[O-],ready biodegradability,readily biodegradable
O=c1c2ccccc2c(=O)c2c1ccc1[nH]c3c(ccc4c(=O)c5ccccc5c(=O)c43)[nH]c12,ready biodegradability,not readily biodegradable
CC(C)C(C)(C)O,boiling point,118 °C
same,log10 vapour pressure (mmHg),0.505
same,melting point,-14 °C
C(COCCOCC1CO1)OCCOCC1CO1 (stereo unspecified),melting point,-13 °C
CCOC(=O)C1=NN(c2ccc(Cl)cc2Cl)C(C)(C(=O)OCC)C1 (stereo unspecified),log10 vapour pressure (mmHg),-7.33
same,melting point,51 °C
Clc1cccc(Oc2ccc(Cl)c(Cl)c2)c1,log10 vapour pressure (mmHg),-3.91
CC1=C(/C=C/C(C)=C/C=C/C(C)=C/C=C/C=C(C)/C=C/C=C(C)/C=C/C2=C(C)C(=O)C(O)CC2(C)C)C(C)(C)CC(O)C1=O (stereo unspecified),melting point,182 °C
Clc1ccc(-c2c(Cl)cccc2Cl)c(Cl)c1,log10 Henry constant (atm·m³/mol),-3.85
same,log10 biotransformation half-life (days),2.47
C=C(C)CCCCCCC,log10 biotransformation half-life (days),-0.06
CN1CCC(CCCC2CCN(C)CC2)CC1,melting point,13.7 °C
O=C1CCCCCCCCCC1,log10 vapour pressure (mmHg),-1.31
Cc1cccc(N)c1N,boiling point,255 °C
same,log10 vapour pressure (mmHg),-3.26
same,melting point,63.5 °C
Cc1ccc(O)c([N+](=O)[O-])c1,log10 Henry constant (atm·m³/mol),-4.83
same,melting point,36.5 °C
same,ready biodegradability,not readily biodegradable
same,log10 BCF,0.95
Brc1c(Br)c(Br)c(-c2c(Br)c(Br)c(Br)c(Br)c2Br)c(Br)c1Br,log10 vapour pressure (mmHg),-9.4
same,melting point,375 °C
same,ready biodegradability,not readily biodegradable
same,log10 BCF,5.19
C=Cc1ccncc1,log10 Koc (L/kg),1.18
same,log10 vapour pressure (mmHg),0.23
same,ready biodegradability,not readily biodegradable
same,log10 BCF,1.86
CCOC(=O)CC(=O)c1ccc([N+](=O)[O-])cc1,melting point,72 °C
O=C(O)c1cccc(Cl)c1[N+](=O)[O-],melting point,238 °C
O=CNC(O)C(Cl)(Cl)Cl (stereo unspecified),melting point,120 °C
Clc1cc(Cl)c(Cl)c(-c2ccc(Cl)c(Cl)c2Cl)c1,log10 Henry constant (atm·m³/mol),-4.43
CCC=CCC,boiling point,66.8 °C
same,log10 vapour pressure (mmHg),2.22
same,melting point,-114 °C
CCCC(=O)c1ccc(Cl)cc1,melting point,19.5 °C
Oc1ccc([C@H](O)[C@H]2CCCCN2)cc1O,melting point,204 °C
C1=CC2CCC1C2,boiling point,96 °C
same,log10 vapour pressure (mmHg),1.59
same,melting point,45 °C
CCSCc1ccccc1OC(=O)NC,log10 vapour pressure (mmHg),-5.15
same,melting point,33.4 °C
Cl.ClCCN(Cc1ccccc1)Cc1ccccc1,melting point,192 °C
Cc1ccc2c(c1)CCC2,boiling point,202 °C
same,log10 biodegradation half-life (days),0.301
CCN(CC)c1nc(Cl)nc(N(CC)CC)n1,melting point,27 °C
CCCCCCCCCCOC(C)=O,boiling point,244 °C
same,melting point,-15 °C
